Holding throughout (assay type): biochemical
Experiment [1] addresses T1, human 20S proteasome (hCP), ChT-L activity.
T1 construct: purchased Boston Biochem (Cambridge, MA, USA)
The experiment can be described thus: ChT-L peptidase activity of isolated hCP (Suc-LLVY-AMC fluorogenic substrate). The conditions noted are these: hCP 2 nM, 1 h preincubation with ions, Tris 25 mM pH 7.6, 37 °C, no SDS; read-out: IC50 ChT-L. From the text: (§1) Purified human 20S proteasome (hCP) and the fluorogenic substrates Suc-LLVY-AMC, Z-Leu-Leu-Glu-AMC, and Ac-Arg-Leu-Arg-AMC used to assay the ChT-L, T-L, and C-L activity, were from Boston Biochem (Cambridge, MA, USA). Bathocuproinedisulfonic acid disodium salt (BCS), dithiothreitol (DTT), N-Acetyl-L-Cysteine (NAC), Sodium dodecylsulphate (SDS) as well as CuCl2 and Zn(NO3)2 were from Sigma-Aldrich (St. Louis, MO). Proteasome inhibitors Epoxomicin were obtained from Enzo Life Science. Wild type 20S proteasome isolated from Saccharomices Cerevisiae (yCP) and a mutant (α3ΔN) where nine residues of the N-terminal tail of the α3 subunit are deleted to provide a permanently open-gate conformations were isolated as described elsewhere.
(§2) Peptidase activities of hCP (2 nM) were assayed on in 50 μL Tris 25 mM pH 7.6, at 37 °C with 100 μM of the fluorogenic substrate. hCP was incubated with Cu(II)/Zn(II) ions for 1 h prior activity assays. The fluorescence signal activated by peptide cleavage was recorded at 440 nm (excitation at 360 nm) for 45 min, by a Varioskan (Thermo^©) plate reader in 384 multiwell plates. Three replicates were performed for each data point. Data were reported as normalized percentages of residual activity. The potency (IC50) was calculated from the value of the dose response plot corresponding at a fractional activity of 50%. The IC50 values were determined using a non linear fit of experimental data in according to equation: […]
(§3) The midpoint of this function occurs at a fractional activity value of 50%, corresponding to half inhibition of the target enzyme. The IC50 values and their standard errors were deduced from the fitting. To evaluate if copper is a reversible PI, we measured the ChT-L activity of hCP incubated with Cu(II) (2.20 μM) before and after addition of an equimolar amount of EDTA.

For experiment [2], the target named is T2, human 20S proteasome (hCP), T-L activity.
T2 construct: purchased Boston Biochem (Cambridge, MA, USA)
The experiment can be described thus: T-L peptidase activity of isolated hCP (fluorogenic substrate). The conditions noted are these: hCP 2 nM, 1 h preincubation with ions, Tris 25 mM pH 7.6, 37 °C, no SDS; read-out: IC50 T-L.
Description: as §1, §2, §3

Experiment [3] has as its target T3, human 20S proteasome (hCP), C-L activity.
T3 construct: purchased Boston Biochem (Cambridge, MA, USA)
Briefly: C-L peptidase activity of isolated hCP (fluorogenic substrate). The conditions noted are these: hCP 2 nM, 1 h preincubation with ions, Tris 25 mM pH 7.6, 37 °C, no SDS; read-out: IC50 C-L.
Description: as §1, §2, §3

The target of experiment [4] is T4, human 20S proteasome (hCP).
T4 construct: purchased Boston Biochem (Cambridge, MA, USA)
Briefly: Peptidase activities of isolated hCP, all three (ChT-L, T-L, C-L). The conditions noted are these: T-L and C-L of hCP, no SDS, read-out: IC50 values, range over the three peptidase activities.
Description: as §1
as §2, with “The potency (IC50) was calculated from the value of the dose response plot corresponding at a fractional activity of 50%.” left out

pIC50: −log10 of the molar value.

As to `O=[N+]([O-])[O-].O=[N+]([O-])[O-].[Zn+2]` [Zn(II), Zn(NO3)2, reference compound], the negative logarithm of the IC50 (pIC50) in experiment [1] was 5.22; in experiment [2], 5.38; in experiment [3], 5.23; in experiment [4], 5.22 to 5.38.

By pIC50 is commonly meant the negative decadic logarithm of the IC50, by convention in mol/L.

(Values after article PMC5025780, “Copper(II) ions affect the gating dynamics of the 20S proteasome: a molecular and in cell study” (Scientific Reports, 2016).)
